Experimental findings from patent US11802120B2, “Fused cyclic urea derivatives as CRHR2 antagonist” (RaQualia Pharma Inc., priority 2018, dated 2023) are described below.

In this assay the target is T1, human CRHR2-alpha (Homo sapiens, UniProt Q13324).
T1 sequence (Q13324 1-411): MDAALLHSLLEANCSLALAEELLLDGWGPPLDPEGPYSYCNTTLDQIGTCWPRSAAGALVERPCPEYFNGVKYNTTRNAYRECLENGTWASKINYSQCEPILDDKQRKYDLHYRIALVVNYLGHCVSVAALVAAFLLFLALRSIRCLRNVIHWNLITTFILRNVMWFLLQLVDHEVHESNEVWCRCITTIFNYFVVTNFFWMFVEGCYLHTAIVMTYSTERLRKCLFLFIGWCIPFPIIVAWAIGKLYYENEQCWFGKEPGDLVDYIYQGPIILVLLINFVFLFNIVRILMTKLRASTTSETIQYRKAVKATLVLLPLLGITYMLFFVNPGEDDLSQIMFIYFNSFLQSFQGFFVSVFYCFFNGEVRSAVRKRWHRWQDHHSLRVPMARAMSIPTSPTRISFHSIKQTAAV
As to the kind of experiment: cAMP functional assay for human CRHR2 (LANCE Ultra cAMP, TR-FRET). Type of assay: cell-based. The following applies: CHO-K1 cells expressing human CRHR2-alpha, agonist human urocortin2 at EC80, cAMP; read-out: IC50 against CRHR2. In a few lines:
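Inhibition of agonist-driven cAMP was assessed in recombinant CHO-K1 cells at 25° C, using 30 min compound pretreatment and 30 min stimulation with EC80 human urocortin2 (CRHR2) or CRF (CRHR1). IC50 came from dose-response fitting.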
The term IC50 denotes the concentration at which inhibition is half-maximal. For the compound `COc1ccc(F)c(-n2c(=O)n(C[C@H]3CC[C@H](NC(=O)c4cc(Cl)cnc4C(F)F)CC3)c3cccnc32)c1` [Example 725, 5-chloro-2-(difluoromethyl)-N-((1r,4r)-4-((3-(2-fluoro-5-methoxyphenyl)-2-oxo-2,3-dihydro-1H-imidazo[4,5-b]pyridin-1-yl)methyl)cyclo-hexyl)nicotinamide], the IC50 was under 300 nM.

For `COc1ccc(F)c(-n2c(=O)n(C[C@H]3CC[C@H](NC(=O)c4cc(Cl)cnc4C(F)F)CC3)c3cnccc32)c1` [Example 726, 5-chloro-2-(difluoromethyl)-N-((1r,4r)-4-((1-(2-fluoro-5-methoxyphenyl)-2-oxo-1H-imidazo[4,5-c]pyridin-3(2H)-yl)methyl)cyclohexyl) nicotinamide], the concentration for half-maximal inhibition (IC50) is under 300 nM.

In the case of `Cn1ccc2cc(-n3c(=O)n(C[C@H]4CC[C@H](NC(=O)c5cc(Cl)cnc5C(F)F)CC4)c4cccnc43)cnc21` [Example 730, 5-chloro-2-(difluoromethyl)-N-((1r,4r)-4-((3-(1-methyl-1H-pyrrolo[2,3-b]pyridin-5-yl)-2-oxo-2,3-dihydro-1H-imidazo[4,5-b]pyridin-1-yl)methyl)cyclohexyl)nicotinamide], the IC50 is under 300 nM.

Turning to `Cc1cn(CCO)c2ncc(-n3c(=O)n(C[C@H]4CC[C@H](NC(=O)c5cc(Cl)cnc5C(F)F)CC4)c4ccccc43)cc12` [Example 731, 5-chloro-2-(difluoromethyl)-N-((1r,4r)-4-((3-(1-(2-hydroxyethyl)-3-methyl-1H-pyrrolo[2,3-b]pyridin-5-yl)-2-oxo-2,3-dihydro-1H-benzo[d]imidazol-1-yl)methyl)cyclohexyl)nicotinamide], the half-maximal inhibitory concentration (IC50) was under 300 nM.

For the compound `Cn1c(CO)cc2cc(-n3c(=O)n(C[C@H]4CC[C@H](NC(=O)c5cc(Cl)cnc5C(F)F)CC4)c4ccccc43)cnc21` [Example 732, 5-chloro-2-(difluoromethyl)-N-((1r,4r)-4-((3-(2-(hydroxymethyl)-1-methyl-1H-pyrrolo[2,3-b]pyridin-5-yl)-2-oxo-2,3-dihydro-1H-benzo[d]imidazol-1-yl)methyl)cyclohexyl)nicotinamide], the half-inhibitory concentration (IC50) is under 300 nM.

Regarding `O=C(N[C@H]1CC[C@H](Cn2c(=O)n(-c3ccc(-c4ncc[nH]4)nc3)c3ccccc32)CC1)c1cc(Cl)cnc1C(F)F` [Example 733, N-((1r,4r)-4-((3-(6-(1H-imidazol-2-yl)pyridin-3-yl)-2-oxo-2,3-dihydro-1H-benzo[d]imidazol-1-yl)methyl)cyclohexyl)-5-chloro-2-(difluoromethyl)nicotinamide], the IC50 was under 300 nM.

For `CN1CCN(c2ccc(-n3c(=O)n(C[C@H]4CC[C@H](NC(=O)c5cc(Cl)cnc5C(F)F)CC4)c4ccccc43)nc2)C1=O` [Example 735, 5-chloro-2-(difluoromethyl)-N-((1r,4r)-4-((3-(5-(3-methyl-2-oxoimidazolidin-1-yl)pyridin-2-yl)-2-oxo-2,3-dihydro-1H-benzo[d]imidazol-1-yl)methyl)cyclohexyl) nicotinamide], the half-inhibitory concentration (IC50) is under 300 nM.

`O=C(N[C@H]1CC[C@H](Cn2c(=O)n(-c3ccc(N4CCNC4=O)nc3)c3ccc(F)cc32)CC1)c1cc(Cl)cnc1C(F)F` [Example 736, 5-chloro-2-(difluoromethyl)-N-((1r,4r)-4-((6-fluoro-2-oxo-3-(6-(2-oxoimidazolidin-1-yl)pyridin-3-yl)-2,3-dihydro-1H-benzo[d]imidazol-1-yl)methyl)cyclohexyl) nicotinamide]: the 50% inhibitory concentration (IC50) is under 300 nM.

Turning to `Cn1ccc(-c2ccc(-n3c(=O)n(C[C@H]4CC[C@H](NC(=O)c5cc(Cl)cnc5C(F)F)CC4)c4ccccc43)cn2)n1` [Example 737, 5-chloro-2-(difluoromethyl)-N-((1r,4r)-4-((3-(6-(1-methyl-1H-pyrazol-3-yl)pyridin-3-yl)-2-oxo-2,3-dihydro-1H-benzo[d]imidazol-1-yl)methyl)cyclohexyl)nicotinamide], the half-inhibitory concentration (IC50) is under 300 nM.

In the case of `O=C(N[C@H]1CC[C@H](Cn2c(=O)n(-c3ccc(-c4ncc[nH]4)cc3)c3ccccc32)CC1)c1cc(Cl)cnc1C(F)F` [Example 743, N-((1r,4r)-4-((3-(4-(1H-imidazol-2-yl)phenyl)-2-oxo-2,3-dihydro-1H-benzo[d]imidazol-1-yl)methyl)cyclohexyl)-5-chloro-2-(difluoromethyl)nicotinamide], the IC50 is under 300 nM.

`O=C(N[C@H]1CC[C@H](Cn2c(=O)n(-c3cccc(-c4nnco4)c3)c3ccccc32)CC1)c1cc(Cl)cnc1C(F)F` [Example 748, N-((1r,4r)-4-((3-(3-(1,3,4-oxadiazol-2-yl)phenyl)-2-oxo-2,3-dihydro-1H-benzo [d]imidazol-1-yl)methyl)cyclohexyl)-5-chloro-2-(difluoromethyl)nicotinamide]: the IC50 is under 300 nM.

As to `O=C(N[C@H]1CC[C@H](Cn2c(=O)n(-c3ccc(N4CCCC4=O)cn3)c3ccccc32)CC1)c1cc(Cl)cnc1C(F)F` [Example 767, 5-chloro-2-(difluoromethyl)-N-((1r,4r)-4-((2-oxo-3-(5-(2-oxopyrrolidin-1-yl)pyridin-2-yl)-2,3-dihydro-1H-benzo [d]imidazol-1-yl)methyl)cyclohexyl)nicotinamide], the 50% inhibitory concentration (IC50) is under 300 nM.

For `Cc1ncc(Cl)cc1C(=O)N[C@H]1CC[C@H](Cn2c(=O)n(-c3cccc(N4CCNC4=O)n3)c3ccccc32)CC1` [Example 772, 5-chloro-2-methyl-N-((1r,4r)-4-((2-oxo-3-(6-(2-oxo-imidazolidin-1-yl)pyridin-2-yl)-2,3-dihydro-1H-benzo [d]imidazol-1-yl)methyl)cyclohexyl)nicotinamide], the IC50 was under 300 nM.

For `O=C(N[C@H]1CC[C@H](Cn2c(=O)n(-c3cccc(N4CCNC4=O)n3)c3ccccc32)CC1)c1cc(Cl)cnc1C(F)F` [Example 773, 5-chloro-2-(difluoromethyl)-N-((1r,4r)-4-((2-oxo-3-(6-(2-oxoimidazolidin-1-yl)pyridin-2-yl)-2,3-dihydro-1H-benzo [d]imidazol-1-yl)methyl)cyclo-hexyl)nicotinamide], the IC50 is under 300 nM.

For `CN1CCN(c2cccc(-n3c(=O)n(C[C@H]4CC[C@H](NC(=O)c5cc(Cl)cnc5C(F)F)CC4)c4ccccc43)n2)C1=O` [Example 774, 5-chloro-2-(difluoromethyl)-N-((1r,4r)-4-((3-(6-(3-methyl-2-oxoimidazolidin-1-yl)pyridin-2-yl)-2-oxo-2,3-dihydro-1H-benzo[d]imidazol-1-yl)methyl)cyclohexyl) nicotinamide], the IC50 was under 300 nM.

For the compound `O=C(N[C@H]1CC[C@H](Cn2c(=O)n(-c3cccc(N4CCCC4=O)n3)c3ccccc32)CC1)c1cc(Cl)cnc1C(F)F` [Example 776, 5-chloro-2-(difluoromethyl)-N-((1r,4r)-4-((2-oxo-3-(6-(2-oxo-pyrrolidin-1-yl)pyridin-2-yl)-2,3-dihydro-1H-benzo[d]imidazol-1-yl)methyl)cyclo-hexyl)nicotinamide], the IC50 is under 300 nM.

On to `Cn1ccc(-c2ccc(-n3c(=O)n(C[C@H]4CC[C@H](NC(=O)c5cc(Cl)cnc5C(F)(F)F)CC4)c4ccccc43)cn2)n1` [Example 777, 5-chloro-N-((1r,4r)-4-((3-(6-(1-methyl-1H-pyrazol-3-yl)pyridin-3-yl)-2-oxo-2,3-dihydro-1H-benzo[d]imidazol-1-yl)methyl)cyclohexyl)-2-(trifluoromethyl)nicotinamide], for which the IC50 is under 300 nM.
